Legend:
[1] = target: Urease (Canavalia ensiformis) (UniProt P07374); assay: Inhibition of jack bean urease assessed as reduction in ammonia production at 0.5 mM using urea as substrate incubated for 15 mins by indophenol method
Urease = Urease (Canavalia ensiformis, UniProt P07374); assay: Inhibition of jack bean urease assessed as reduction in ammonia production using urea as substrate incubated for 15 mins by indophenol method
Sequence of Urease (P07374 whole entry): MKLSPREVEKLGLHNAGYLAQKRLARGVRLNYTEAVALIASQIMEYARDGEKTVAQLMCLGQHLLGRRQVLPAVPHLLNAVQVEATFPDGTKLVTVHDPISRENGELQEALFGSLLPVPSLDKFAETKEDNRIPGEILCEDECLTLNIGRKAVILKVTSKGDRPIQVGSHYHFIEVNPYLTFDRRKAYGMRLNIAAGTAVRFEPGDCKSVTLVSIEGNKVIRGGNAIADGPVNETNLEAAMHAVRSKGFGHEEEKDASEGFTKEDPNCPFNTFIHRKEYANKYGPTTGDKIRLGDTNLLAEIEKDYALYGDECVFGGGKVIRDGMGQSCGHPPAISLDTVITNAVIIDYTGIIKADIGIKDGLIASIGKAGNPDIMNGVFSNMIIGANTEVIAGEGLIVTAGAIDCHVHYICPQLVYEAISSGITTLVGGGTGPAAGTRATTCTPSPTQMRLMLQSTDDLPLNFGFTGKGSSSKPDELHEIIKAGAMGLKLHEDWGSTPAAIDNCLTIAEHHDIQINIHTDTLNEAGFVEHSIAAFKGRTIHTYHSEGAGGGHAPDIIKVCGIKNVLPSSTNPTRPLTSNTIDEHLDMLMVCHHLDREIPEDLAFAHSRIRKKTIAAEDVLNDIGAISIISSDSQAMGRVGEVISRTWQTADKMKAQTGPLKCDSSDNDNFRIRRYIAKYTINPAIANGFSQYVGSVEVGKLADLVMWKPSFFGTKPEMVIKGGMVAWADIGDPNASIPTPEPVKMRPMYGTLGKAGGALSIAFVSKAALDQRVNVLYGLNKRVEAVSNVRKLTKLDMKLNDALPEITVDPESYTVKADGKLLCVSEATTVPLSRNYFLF

Sequence of Urease (Canavalia ensiformis) (P07374 whole entry, looked up): as the sequence (P07374 whole entry) above

Compound	inhibition [1] [%]	IC50 (Urease) [µM]
CCCCCCCCn1c2ccc(C(C)=O)cc2c2cc(C(=O)/C=C/c3ccc(Br)cc3)ccc21	24.9	–
CCCCCCCCn1c2ccc(C(C)=O)cc2c2cc(C(=O)/C=C/c3cccc([N+](=O)[O-])c3)ccc21	94.4	14.2
CCCCCCCCn1c2ccc(C(C)=O)cc2c2cc(C(=O)/C=C/c3ccccc3Cl)ccc21	24.5	–
CCCCCCCCn1c2ccc(C(C)=O)cc2c2cc(C(=O)/C=C/c3ccc([N+](=O)[O-])cc3)ccc21	29.3	–
CCCCCCCCn1c2ccc(C(C)=O)cc2c2cc(C(=O)/C=C/c3cccc(Br)c3)ccc21	10.9	–
CCCCCCCCn1c2ccc(C(C)=O)cc2c2cc(C(=O)/C=C/c3ccccc3Br)ccc21	94.8	8.93
CCCCCCCCn1c2ccc(C(C)=O)cc2c2cc(C(=O)/C=C/c3cccc(OC)c3)ccc21	7.9	–
CCCCCCCCn1c2ccc(C(C)=O)cc2c2cc(C(=O)/C=C/c3ccc(Cl)cc3)ccc21	95.1	24.7
CCCCCCCCn1c2ccc(C(C)=O)cc2c2cc(C(=O)/C=C/c3ccc(N(C)C)cc3)ccc21	22.6	149
CCCCCCCCn1c2ccc(C(C)=O)cc2c2cc(C(=O)/C=C/c3ccccc3)ccc21	19.3	–
CCCCCCCCn1c2ccc(C(C)=O)cc2c2cc(C(=O)/C=C/c3cc(OC)c(OC)c(OC)c3)ccc21	74.5	150
CCCCCCCCn1c2ccc(C(C)=O)cc2c2cc(C(=O)/C=C/c3ccco3)ccc21	78.7	24.8
CCCCCCCCn1c2ccc(C(C)=O)cc2c2cc(C(=O)/C=C/c3ccc(OC)cc3)ccc21	98.5	6.88
CCCCCCCCn1c2ccc(C(C)=O)cc2c2cc(C(=O)/C=C/c3ccccc3[N+](=O)[O-])ccc21	18.6	–
